A short description of series [1]: Solubility versus pH profile.
The target in a further series is T1, hAMY3R (Homo sapiens, UniProt O60896+P30988).
T1 sequence (P30988 25-474): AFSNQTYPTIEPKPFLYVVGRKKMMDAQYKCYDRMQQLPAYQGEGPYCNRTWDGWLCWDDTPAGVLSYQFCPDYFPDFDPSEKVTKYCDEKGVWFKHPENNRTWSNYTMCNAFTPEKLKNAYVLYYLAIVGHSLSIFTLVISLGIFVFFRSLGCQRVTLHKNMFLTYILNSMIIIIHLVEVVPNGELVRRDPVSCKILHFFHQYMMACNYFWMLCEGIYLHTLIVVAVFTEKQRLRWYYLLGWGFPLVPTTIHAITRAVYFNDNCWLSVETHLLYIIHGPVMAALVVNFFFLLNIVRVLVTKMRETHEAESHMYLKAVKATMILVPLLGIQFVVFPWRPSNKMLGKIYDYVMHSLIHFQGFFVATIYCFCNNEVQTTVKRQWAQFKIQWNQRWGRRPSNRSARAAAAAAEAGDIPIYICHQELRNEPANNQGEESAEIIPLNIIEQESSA
T1 sequence (O60896 24-148 partner): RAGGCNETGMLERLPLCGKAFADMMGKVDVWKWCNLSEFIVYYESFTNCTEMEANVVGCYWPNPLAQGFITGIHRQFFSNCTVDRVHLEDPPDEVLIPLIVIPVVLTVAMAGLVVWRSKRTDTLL
Description: cAMP-responsive element luciferase reporter assay, human AMY3R. It is filed as cell-based. Set-up: expressed in transfected cells. The settings on record: for ratio hCTR/hAMY3R: ratio of luciferase EC50 values; for EC50: luciferase (human receptor assay).

The next series deals with T2, rAMY3R (Rattus norvegicus, UniProt P32214+Q9JJ73).
T2 sequence (P32214 25-479 isoform P32214-2 limits assumed): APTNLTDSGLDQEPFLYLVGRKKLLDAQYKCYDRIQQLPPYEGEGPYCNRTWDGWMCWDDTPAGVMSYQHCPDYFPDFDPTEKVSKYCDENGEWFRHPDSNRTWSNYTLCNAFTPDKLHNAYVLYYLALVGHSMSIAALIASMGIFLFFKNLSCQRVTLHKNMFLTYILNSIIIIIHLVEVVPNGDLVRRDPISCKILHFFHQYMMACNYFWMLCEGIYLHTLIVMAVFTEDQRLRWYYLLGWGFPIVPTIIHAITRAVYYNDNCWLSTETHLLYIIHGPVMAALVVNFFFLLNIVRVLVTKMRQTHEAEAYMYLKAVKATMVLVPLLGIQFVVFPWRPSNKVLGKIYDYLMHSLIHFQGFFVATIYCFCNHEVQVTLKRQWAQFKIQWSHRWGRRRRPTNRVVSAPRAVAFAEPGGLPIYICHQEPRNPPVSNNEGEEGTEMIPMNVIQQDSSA
T2 sequence (Q9JJ73 23-147 partner): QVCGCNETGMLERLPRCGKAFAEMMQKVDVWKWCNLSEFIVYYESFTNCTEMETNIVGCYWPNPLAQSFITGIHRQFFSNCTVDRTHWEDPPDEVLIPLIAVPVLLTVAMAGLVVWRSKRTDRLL
Description: scintillation proximity binding assay, rAMY3R membranes. Set-up: expressed in transfected cells; host or cells: BHK tk-ts 13, transient co-transfection (FuGENE 6). The settings on record: for ratio rCTR/rAMY3R: ratio of binding IC50 values. In general terms: SPA uses beads or plates that emit light when radiolabelled molecules are held near them.

Where [2] appears, read: bis-tris-propane buffer, pH 6, aqueous buffer.
[3] abbreviates: bis-tris-propane buffer, pH 6.5, aqueous buffer.
Where [4] appears, read: bis-tris-propane buffer, pH 7, aqueous buffer.
Setting [5] is: bis-tris-propane buffer, pH 7.5, aqueous buffer.
The mark [6] stands for this setting: bis-tris-propane buffer, pH 8, aqueous buffer.
Where [7] appears, read: lactate buffer, pH 4, aqueous buffer.
[8] abbreviates: lactate buffer, pH 5, aqueous buffer.

The values below come from paper PMC11284788, “NN1213 – A Potent, Long-Acting, and Selective Analog of Human Amylin” (Journal of Medicinal Chemistry, 2024).

Where two headings read alike, the source gives them in different places. Numbered stars: 1 amine (or outer) side, 2 acyl side, 3 side chain; on linkers, the order of the positions; unused ones are H or OH. Bridge positions count the residues as written; N and C are the ends. Peptide text beside a SMILES is read from it. * marks the point of attachment. C20 diacid = O=C(O)CCCCCCCCCCCCCCCCCCC(=O)*; γGlu = O=C(O)[C@H](CCC(=O)[*:2])N[*:1]; AEEA = NCCOCCOCC(=O)O A value given as a limit tells only on which side of the number the result lay.

Consider `CC[C@H](C)[C@H](NC(=O)[C@H](C)NC(=O)CNC(=O)[C@H](Cc1ccccc1)NC(=O)[C@H](CC(N)=O)NC(=O)[C@@H]1CCCN1C(=O)[C@H](CO)NC(=O)[C@H](CO)NC(=O)[C@H](Cc1c[nH]cn1)NC(=O)[C@H](CCCNC(=N)N)NC(=O)[C@H](CC(C)C)NC(=O)[C@H](Cc1ccccc1)NC(=O)[C@H](CC(N)=O)NC(=O)[C@H](C)NC(=O)[C@H](CC(C)C)NC(=O)[C@H](CCCNC(=N)N)NC(=O)[C@H](CCC(N)=O)NC(=O)[C@@H](NC(=O)[C@H](C)NC(=O)[C@@H]1CSSC[C@H](NC(=O)[C@H](CCCCN)NC(=O)COCCOCCNC(=O)CC[C@H](NC(=O)CCCCCCCCCCCCCCCCCCC(=O)O)C(=O)O)C(=O)N[C@@H](CC(N)=O)C(=O)N[C@@H]([C@@H](C)O)C(=O)N[C@@H](C)C(=O)N[C@@H]([C@@H](C)O)C(=O)N1)[C@@H](C)O)C(=O)N1CCC[C@H]1C(=O)N[C@@H](CO)C(=O)N[C@@H](CO)C(=O)N[C@H](C(=O)N[C@@H](CC(N)=O)C(=O)N[C@H](C(=O)NCC(=O)N[C@@H](CO)C(=O)N[C@@H](Cc1c[nH]cn1)C(=O)N[C@H](C(=O)N[C@@H](Cc1ccc(O)cc1)C(N)=O)[C@@H](C)O)C(C)C)[C@@H](C)O` [Peptide 18] ({C20 diacid-γGlu-AEEA}-KCNTATCATQRLANFLRHSSPNFGAIPSSTNVGSHTY-NH2; disulfide 2-7; N-terminus assumed), for which the kinetic solubility in series [1] (setting [2]), in series [1] (setting [3]), in series [1] (setting [4]), in series [1] (setting [5]), in series [1] (setting [6]) and in series [1] (setting [7]) was at least 200 µM each time. The solubility (kinetic) (as a rule, solubility judged after dilution from a stock solution rather than from solid) in series [1] (setting [8]) was at least 200 µM. Moreover, the “ratio hCTR/hAMY3R” value at hAMY3R is recorded as 19. Also, at rAMY3R, the “ratio rCTR/rAMY3R” value turned out to be 57.

On to `CC[C@H](C)[C@H](NC(=O)[C@H](C)NC(=O)CNC(=O)[C@H](Cc1ccccc1)NC(=O)[C@H](CC(N)=O)NC(=O)[C@@H]1CCCN1C(=O)[C@H](CO)NC(=O)[C@H](CO)NC(=O)[C@H](Cc1c[nH]cn1)NC(=O)[C@H](CCCNC(=N)N)NC(=O)[C@H](CC(C)C)NC(=O)[C@H](Cc1ccccc1)NC(=O)[C@H](CCC(=O)O)NC(=O)[C@H](C)NC(=O)[C@H](CC(C)C)NC(=O)[C@H](CCCNC(=N)N)NC(=O)[C@H](CCC(N)=O)NC(=O)[C@@H](NC(=O)[C@H](C)NC(=O)[C@@H]1CSSC[C@H](NC(=O)[C@H](CCCCN)NC(=O)CC[C@H](NC(=O)CCCCCCCCCCCCCCCCCCC(=O)O)C(=O)O)C(=O)N[C@@H](CC(N)=O)C(=O)N[C@@H]([C@@H](C)O)C(=O)N[C@@H](C)C(=O)N[C@@H]([C@@H](C)O)C(=O)N1)[C@@H](C)O)C(=O)N1CCC[C@H]1C(=O)N[C@@H](CO)C(=O)N[C@@H](CO)C(=O)N[C@H](C(=O)N[C@@H](CC(N)=O)C(=O)N[C@H](C(=O)NCC(=O)N1CCC[C@H]1C(=O)N[C@@H](CC(N)=O)C(=O)N[C@H](C(=O)N[C@@H](Cc1ccc(O)cc1)C(N)=O)[C@@H](C)O)C(C)C)[C@@H](C)O` [Peptide 12] ({C20 diacid-γGlu}-KCNTATCATQRLAEFLRHSSPNFGAIPSSTNVGPNTY-NH2; disulfide 2-7), for which the kinetic solubility in series [1] (setting [2]), in series [1] (setting [3]), in series [1] (setting [4]), in series [1] (setting [5]), in series [1] (setting [6]) and in series [1] (setting [7]) was at least 200 µM throughout. The solubility (kinetic) in series [1] (setting [8]) was at least 200 µM. Further, the EC50 on hAMY3R (Tables S12 and S14, read-out: hAMY3R pEC50 (converted)) was 0.0468 nM; on hAMY3R (BHK cells stably expressing hCTR+RAMP3 and CRE-luciferase, 3 h, 37 °C, 10% FBS, read-out: hAMY3R EC50), 0.047 nM. At hAMY3R, the “ratio hCTR/hAMY3R” value is on record as 6.7. Besides, the “rAMY3R pIC50” value on rAMY3R (SPA binding assay, Tables S13 and S15) worked out at 9.75. The “ratio rCTR/rAMY3R” value at rAMY3R was 34.
